The data set relates to male Sprague-Dawley rats. The data set can be described thus: preliminary toxicological evaluation following p.o. administration in rats. The data set is classed as in vivo. Here is the method:
A preliminary toxicological evaluation of the compound was done in 250-300 g male Sprague-Dawley rats. Animals were randomized into one of three dosing group, i.e. 250, 500 or 1,000 mg/kg administered by oral gavage. Following administration of the test article, animals were observed hourly for the first 8 hr post-dosing for clinical signs and twice daily thereafter until termination on Day 7. Three animals per group were sacrificed by exsanguination under general anesthesia at 24-hr post dosing or on Day 7 and a gross necropsy was performed in all animals. Additionally, all three rats having received the 500 mg/kg dose and scheduled for sacrifice on Day 7 were placed in individual metabolic cages immediately following test article administration, in order to collect feces and urine during 48 hr. Blood samples were collected terminally from each rat for hematology and serum chemistry evaluation.

Where [1] appears, read: male rats, single oral dose 250, 500 or 1000 mg/kg.

Each structure is given as a SMILES string.

In the case of `CCC(COC(=O)c1cc(OC)c(OC)c(OC)c1)(c1ccccc1)N(C)C.NC(=S)c1cccc(S(=O)(=O)O)c1` (centres unmarked) [Example 20], where the note is “male rats, single oral dose”, the hematology parameters result was “No significant changes”; the “serum biochemistry variations compared to control (e.g., amylase, creatinine)” value was “minor, transient and remained within the normal range for the species”. For the same molecule, under setting [1], the “mortality or clinical signs” value was “No mortality or clinical signs were observed” and the tolerability entry is listed as “well tolerated”. Moreover, for the setting “rats sacrificed on Day 7, 500 or 1000 mg/kg p.o.”, the necropsy findings result is recorded as “pale and/or enlarged lungs in a few animals”.
